Measurements as given in publication PMC9086869 (RSC Advances, 2018).

Molecular target: recombinant human CYP3A4 enzyme (Homo sapiens, UniProt P08684)
Test: CYP3A4-Glo Screening System luminescent CYP3A4 inhibition assay
Settings: for CYP3A4 inhibition activity (in words): compared with pterostilbene and ellipticine

Sequence of recombinant human CYP3A4 enzyme (P08684 whole entry): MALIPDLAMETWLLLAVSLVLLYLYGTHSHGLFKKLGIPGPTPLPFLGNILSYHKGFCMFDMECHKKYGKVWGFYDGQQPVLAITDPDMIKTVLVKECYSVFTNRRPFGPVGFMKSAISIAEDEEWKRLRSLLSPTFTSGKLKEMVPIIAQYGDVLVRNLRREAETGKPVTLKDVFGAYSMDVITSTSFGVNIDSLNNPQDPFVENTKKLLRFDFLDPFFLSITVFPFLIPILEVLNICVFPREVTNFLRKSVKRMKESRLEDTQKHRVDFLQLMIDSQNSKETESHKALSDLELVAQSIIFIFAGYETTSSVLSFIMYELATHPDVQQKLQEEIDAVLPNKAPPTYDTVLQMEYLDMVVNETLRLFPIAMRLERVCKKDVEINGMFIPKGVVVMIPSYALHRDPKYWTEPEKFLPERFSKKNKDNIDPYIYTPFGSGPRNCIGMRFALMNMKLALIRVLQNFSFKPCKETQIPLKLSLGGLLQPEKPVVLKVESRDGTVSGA

IC50 [µM]	CYP3A4 inhibition activity (in words)	Structure (SMILES)
14.8 ± 2.09	weaker	O=C(/C=C/c1ccc(O)cc1)CC(=O)/C=C/c1ccc(O)cc1 [Bisdemethoxycurcumin]
18.2 ± 1.72	weaker	CC(C)=CCOc1c2ccoc2cc2oc(=O)ccc12 [Isoimperatorin]
1.12 ± 0.056	–	COc1cc(/C=C/c2ccc(O)cc2)cc(OC)c1 [Pterostilbene]

Structure (SMILES)	IC50 [µM]	CYP3A4 inhibition activity (in words)
Cc1c2ccncc2c(C)c2c1[nH]c1ccccc12 [Ellipticine]	0.052 ± 0.003	–
